Reference: article PMC7970121, “Combination With Tomatidine Improves the Potency of Posaconazole Against Trypanosoma cruzi” (Frontiers in Cellular and Infection Microbiology, 2021)
Where a name gives a salt, the structure may show the parent alone. Read-outs that look alike come from different tables or passages of the source.

Tests used:
[1] = Cytotoxicity against L6 cells (resazurin, 72 h); assay type: cell-based, rat
Procedure: Rat skeletal myoblasts (L6 cell lines) were seeded in 96-well plates (4 × 10^4 cells/well) in 100 μl RPMI 1640 medium supplemented with 10% fetal bovine serum (FBS) and 2 mM L-glutamine. After 24 h incubation the medium was replaced with 100 μl of fresh medium with or without a serial dilution of compound concentrations (eleven three-fold dilution steps). After 72 h of compound exposure, fluorescent dye resazurin (10 μl, 12.5 mg resazurin dissolved in 100 ml water) was added for 2 h and the readings performed at Spectramax Gemini XS microplate fluorometer (Molecular Devices Cooperation, USA), with excitation wavelength of 536 nm and an emission wavelength of 588 nm. Growth was expressed as percentage of the values of solvent-treated controls. The graphics program Softmax Pro (Molecular Devices) was used to construct dose–response curves and calculate EC50 values. Podophyllotoxin (a microtubule destabilizing agent) was used as positive control.

[2] = system: Trypanosoma cruzi epimastigotes (STIB 980 strain); assay: Activity on T. cruzi epimastigotes (resazurin, 72 h); assay type: cell-based
Procedure: (§1) L6 cells derived from rat skeletal myoblast (ATCC CRL-1458) were used as host cells for T. cruzi using trypomastigotes of Tulahuen C2C4 strain (DTU VI) expressing the β-galactosidase gene (LacZ) ([Buckner et al., 1996]). The cultures were sustained in RPMI-1640 supplemented with 10% inactivated fetal bovine serum (FBS) and […] at 5% CO2 and 37°C. Epimastigote T. cruzi (STIB 980 strain, DTU TcI) were cultivated at 28°C in liver infusion tryptose (LIT) medium supplemented with hemin (2 μg/ml) and 10% FBS and were used in log phase of growth. Bloodstream trypomastigotes (Y strain, DTU II) were isolated from Swiss Webster mice infected at the peak of parasitemia (≥ 2.5 × 10^6/ml), as reported ([Meirelles et al., 1986]).
Epimastigotes (10^7 parasites/ml) were incubated for 72 h at 28°C with serially diluted compound concentrations (eleven 1:3 dilutions) in supplemented LIT medium. Parasite viability and motility were evaluated by direct observation by light microscopy and fluorometric assays performed with resazurin (12.5 mg resazurin dissolved in 100 ml distilled water). After 2–4 h of incubation with resazurin solution, plates were read in Spectramax Gemini XS microplate fluorometer (Molecular Devices Cooperation, USA) using wavelengths of 536 nm (excitation) and 588 nm (emission) ([Räz et al., 1997]). Growth was expressed as percentage of the values of solvent-treated controls. The graphics program Softmax Pro (Molecular Devices) was used to construct dose–response curves and calculate EC50 (half maximal inhibitory concentration) values. Bz was used as reference drug.

[3] = system: Trypanosoma cruzi intracellular amastigotes (Tulahuen strain in rat L6 myoblasts); assay: Activity on T. cruzi intracellular amastigotes in L6 cells (LacZ/CPRG, 96 h); assay type: cell-based; conditions: for EC50: read-out: Amastigotes (mean ± SD) EC50; for EC90: read-out: Amastigotes (mean ± SD) EC90
Procedure: as §1
Rat skeletal myoblasts (L6 cell lines) were seeded in 96-well plates (10^4 cells/well) in 100 μl RPMI 1640 medium supplemented with 10% fetal bovine serum (FBS) and 2 mM L-glutamine. The medium was removed after 24 h incubation and replaced by 100 μl of fresh medium containing 10^5 LacZ trypomastigotes (Tulahuen DTU VI). After 48 h, the medium was again removed and replaced with or without a serial of compound concentrations (eleven three-fold dilution steps). After 96 h of compound exposure, CPRG/Nonidet (50 μl) substrate was added and the reading performed after 2–6 h at 540 nm in Versamax microplate reader (Molecular Devices Cooperation, USA). Growth was expressed as percentage of the values of solvent-treated controls. The graphics program Softmax Pro (Molecular Devices) was used to construct dose–response curves and calculate EC50 values. Bz was used as reference drug.

[4] = L6 rat skeletal myoblast cells, rat L6 myoblasts, 72 h, n = 3, read-out: L6 cells (mean ± SD) EC50
[5] = STIB980, STIB 980 strain, 72 h, n = 3, read-out: Epimastigotes (mean ± SD) EC50
[6] = STIB980, STIB 980 strain, 72 h, n = 3, read-out: Epimastigotes (mean ± SD) EC90
[7] = Trypanosoma cruzi, TULAHUEN, L6, 96 h, Tulahuen strain in rat L6 myoblasts, 96 h, n = 3
[8] = Trypanosoma cruzi, Tulahuen strain in rat L6 myoblasts, 96 h, n = 3
[9] = EC50 on mammalian L6 cells versus EC50 on intracellular amastigotes
[10] = Tulahuen strain in rat L6 myoblasts, 96 h, n = 3
[11] = rat L6 myoblasts, 72 h, n = 3, read-out: L6 cells (mean ± SD) EC50
[12] = Trypanosoma cruzi, TULAHUEN, L6, 96 h

Structure (SMILES) | EC50 at 72 h [1, 4] | EC50 [2, 5] | EC90 [2, 6] | SI (Selectivity Index) [3] | EC50 [3, 7] | EC90 [3, 8] | EC50 at 72 h ([1]; rat) | SI (Selectivity Index) [3, 9] | EC50 [3, 10] | EC50 ([3]; Tulahuen strain in rat L6 myoblasts, 96 h, n = 3, listed as RO48-8071) | EC50 at 72 h [1, 11] | EC50 ([2]; STIB980, 72 h, read-out: Epimastigotes (mean ± SD) EC50) | EC90 ([2]; STIB980, 72 h, read-out: Epimastigotes (mean ± SD) EC90) | EC50 [3, 12] | EC90 [3, 12]
CCCCCCCCCC(=O)NC(CN1CCOCC1)C(O)c1ccccc1 (centres unmarked) [PDMP (hydrochloride), PDMP] | 33.5 ± 3.1 µM | 47.9 ± 9.4 µM | 88.7 ± 18 µM | 2.7 | 12.5 ± 2.9 µM | 24.6 ± 9 µM |  |  |  |  |  |  |  |  | 
OCC1C(O)C(O)C(O)CN1CCCCCOCC12CC3CC(CC(C3)C1)C2 (centres unmarked) [AMP-Deoxy nojirimycin, AMP-Deoxynojirimycin] |  | 158 ± 5.9 µM | 237 ± 2 µM |  | 34.8 ± 15.1 µM | 66.6 ± 15.4 µM | 40.4 ± 10.9 µM | 1.2 |  |  |  |  |  |  | 
O=C(Cn1ccnc1[N+](=O)[O-])NCc1ccccc1 [Benznidazole] |  | 13.9 ± 2.2 µM | 101 ± 18 µM |  | 2.2 µM | 6.61 ± 2.5 µM | > 384 µM | >172 | 2.22 ± 0.98 µM |  |  |  |  |  | 
C1CN2CCC1CC2 [Quinuclidine hydrochloride, Quinuclidine] | > 677 µM | > 677 µM | > 677 µM | >1.4 | 478 ± 174 µM | > 677 µM |  |  |  |  |  |  |  |  | 
NC1CN2CCC1CC2 (centres unmarked) [3-Amino quinuclidine dihydrochloride, 3-Amino quinuclidine] |  | > 502 µM | > 502 µM |  | 268 ± 10 µM | 485 ± 28 µM | > 502 µM | >1.8 |  |  |  |  |  |  | 
C=CCN(C)CCCCCCOc1ccc(C(=O)c2ccc(Br)cc2)c(F)c1 [Ro48-8071] |  | 11.6 ± 6.1 µM | 29.4 ± 16.2 µM |  |  | 2.5 ± 1.9 µM | 5.7 ± 2.4 µM | 12 | 0.47 ± 0.09 µM | ≤ 1 µM |  |  |  |  | 
CCCCC(C)C(OC(=O)CC(CC(=O)O)C(=O)O)C(CC(C)CC(O)CCCCC(O)CC(O)C(C)N)OC(=O)CC(CC(=O)O)C(=O)O (centres unmarked) [Fumonisin B1] |  |  |  |  |  |  |  | >1.8 |  |  | > 92 µM | > 92 µM | > 92 µM | 50.8 ± 5.7 µM | 84 ± 9.1 µM
CCCCCCCCc1ccc(CCC(N)(CO)COP(=O)(O)O)cc1 (centres unmarked) [FTY720 Phosphate, FTY720-P] |  | > 258 µM | > 258 µM |  | 93.8 ± 3.3 µM | 168 ± 25 µM | 127 ± 22 µM | 1.4 |  |  |  |  |  |  | 
CCCCCCC(=O)CCCCCC/C=C/C[C@@H](O)[C@H](O)[C@@](N)(CO)C(=O)O [Myriocin] |  | > 249 µM | > 249 µM |  | 130 ± 34 µM | 231 ± 25 µM |  | >1.9 |  |  | > 249 µM |  |  |  | 
